Reference: patent US10648917B2, “Luminescent compositions and applications thereof” (THE PENN STATE RESEARCH FOUNDATION, priority 2015, dated 2020)

Key:
[1] = Fluorescence spectra, absorbance and quantum yield (spectrofluorometer, integration sphere); format: physicochemical; settings: for Shifting (emission shifting with excitation wavelength): CFD dyes; for Φ (quantum yield) / λem (maximum emission wavelength) / λex (maximum excitation wavelength) / ϵ (extinction coefficiency): Table III; for Max. Em. Wavelength / Max. Ex. Wavelength / Quantum Yield: representative CFDs, Table I
Description: Fluorescence spectra were recorded by a Horiba FluoroMax-4 spectrofluorometer. All polymer and small molecule samples were measured at a concentration of 2% w/w in 1,4-dioxane or DI water and a slit size of 1 nm by 1 nm unless otherwise specified. Quantum yields were also determined on the same spectrofluorometer by using a Quantum-φ integration sphere at the same concentration and slit size with the blank solvent as the reference. ^1H-NMR, ^13C-NMR were performed on a JNM ECS 300 spectrometer using DMSO-d6 or D2O as solvents. Attenuated total reflection Fourier transform infrared (ATR-FTIR) spectra were collected with a Bruker V70 spectrometer using BPLP films. A Shimadzu HPLC-MS system with a Phenomenex Kinetex 2.6u XB-C18 100 mm×2.9 mm column, a SPD M20A PDA detector and a RF-20AXS fluorescence detector (Ex. 360 nm and Em. 430 nm) was used to characterize the structures of fluorophores as well. The mobile phase was a gradient of DI water and acetonitrile with 0-6 min 2% acetonitrile, 6-12 min 2%-30% acetonitrile, and 12-15 min 2% acetonitrile. The flow rate was 0.15 ml/min. Electrospray ionization mass spectroscopy (ESI-MS) was performed with a positive voltage of 4.5 kV and negative mode voltage −4.0 kV and a CDL temperature of 200° C. The analysis of the degradation products of BPLPs were conducted by immersing BPLPs in 1M K2CO3 solution at 37° C. for 24 hours. After degradation, the solutions were neutralized by 1N HCl solution to pH 7 and characterized by HPLC-MS as described above.
(§1) Fluorescence spectra were recorded by a Horiba FluoroMax-4 spectrofluorometer. All samples were measured at a concentration corresponding to an optical density of 0.1 in water and a slit size of 1 nm by 1 nm unless specified. Quantum yields were also determined on same spectrofluorometer by using a Quantum-φ integration sphere at samples' maximum excitation wavelength and at an increment of 0.3 nm. Photostability studies were done by continuously exciting samples at their maximum excitation wavelength and monitoring at the maximum emission wavelength.
(§2) Fluorescence spectra were recorded on a Horiba FluoroMax-4 spectrofluorometer (Horiba Scientific, Edison N.J.). All polymer and samples were characterized at a concentration of 2 wt % in 1,4-dioxane and a slit size of 1 nm by 1 nm unless otherwise specified. The fluorescence properties of small molecule dyes were also measure in 2 wt % DI water solutions at same conditions as polymer solutions. BPLPs were also degraded in 1M K2CO3 solution at 37° C. for 24 hours and then neutralized with 1N HCl solution to pH7. The resulting degradation solutions were subject to further PL characterizations. Quantum yields were also determined on the same spectrofluorometer by using a Quantum-φ integration sphere (Horiba Scientific, Edison N.J.) at the same concentration and slit size with the blank solvent as the reference. Photostability of small molecules and polymers were determined by monitoring the emission intensity decay at their max. Excitation and emission wavelengths over 3 hours of continuous lumination in the spectrofluorometer.
(§3) Absorbance Spectra were recorded on Tecan Infinite M200 Pro UV-vis spectroscopy, and fluorescence spectra were recorded on Horiba FluoroMax-4 fluorospectroscopy at concentrations below 0.1 O.D. unless otherwise indicated. Quantum Yields were measured on the Quantum φ Integrating Sphere accessory to the FluoroMax-4, while lifetime measurements were determined through the Time-Correlation Single Photon Counting (TCSPC) accessory to the FluroMax-4. TCSPC was utilized in conjunction with NanoLED pulsed diode light source with peak excitation wavelength at 352 nm and at 10,000 counts peak preset. Emission was collected at the fluorescence λmax, unless otherwise indicated. For all pH-dependence experiments, sample pH was adjusted with sulfuric acid or sodium hydroxide. For all chloride-dependent quenching experiments, magnesium chloride hexahydrate (Sigma Aldrich) was used.

[2] = Photostability under continuous excitation for 3 hours; format: physicochemical
Description: as §1, §2
Photostability of CFDs was characterized thereafter, since traditional organic dyes suffer from photobleaching. Various CFDs were tested under their maximum excitation and emission wavelengths for 3 hours, and the photoluminescence was normalized to the initial intensity.

[3] = Halide fluorescence quenching (Stern-Volmer); format: physicochemical; settings: compared with CA-Cysteine
Description: as §3
When a fluorophore of [F] absorbs light energy, excitation raises a sub-population of [F] to the excited state, [F*], which then rapidly lose energy along radiative relaxation (kr) or non-radiative relaxation (knr) according to equation 7. If a quencher forms a complex with the excited fluorophore, an extra non-radiative component, kq, is added to equation 7 to account for the additional relaxation pathway that is a function of quencher concentration and its association constant.
[formula] Thus the quenching of fluorescence can be quantitatively analyzed by comparing the affected lifetimes. The Stern-Volmer (SV) relationship is used to determine kq, the bimolecular quenching rate constant for the diffusion coefficients of the fluorophore and quencher, by deriving a plot of τ0/τ versus [Q]:
[formula] Thus the linear slope of the SV plot, KSV, measures the efficiency of the quencher. Since sulfuric acid was used to study proton-induced quenching, the pH value was a better indicator of [H^+] due to incomplete dissociation of sulfuric acid at high concentrations. In the case of multiple quenchers, as will be discussed in this paper, equation 7 must include additional kq terms that result in modified form of equation 12 below:
[formula] If the two quenchers are act independently, the quencher of known quenching rate and concentration can be combined into the Y-intercept term in order to determine the quenching rate of the second, unknown quencher. […]
To translate halide quenching into quantitative sensing applications, a modified Stern-Volmer equation (Equation 14) was used to linearize the effects of two quenchers, protons and the halide being studied, on the fluorescence of CA-Cysteine. […]
Since the measured sample fluorescence is quenched by both protons and halides, the unquenched fluorescence, Io, was defined as the fluorescence of the neutral state CA-Cysteine in the absence of additional proton or halide quenchers. As mentioned above, the effects of protolytic equilibria stabilize around pH 2.2, where CA-Cysteine undergoes 99% conversion from the dianion state and is marked by constant fluorescence intensities (FIG. 13). […] Thus we chose the fluorescence intensity at pH 2.2 (in the absence of halides) as the unquenched reference signal, Io. IH,Cl in equation 23 is the sample fluorescence at the pH and halide concentration indicated. […]

[4] = pH dependence of fluorescence / pH sensing; format: physicochemical
Description: as §3
pH Dependence of CA-Cys Fluorescence. Of all solvent and environmental factors that affect fluorescence, CA-Cys appeared to display the greatest sensitivity to changes in pH. […] From a detailed analysis of FIG. 13, four correlations were observed. Fluorescence properties of CA-Cys were invariable from high basicity to a pH of 4.84, from which the excitation λmax began to red-shift from 350 nm, emission λmax began to red-shift from 418 nm, maximum fluorescence intensity began to decrease, and quantum yield began to decrease. As acidity was increased, all four trends continued until pH 2.44, from which the excitation λmax plateaued at 365 nm, emission plateaued at 445 nm, and fluorescence intensity and quantum yield both experienced a short local plateau. Similarly, Stokes shift increased from 67 nm to 80 nm in high acidity. Lastly, absorbance λmax shifted similarly to that of the maximum excitation, while absorbance intensities remained relatively constant. […] All of these patterns were reminiscent of a pH-dependent equilibrium, thus the predominant mechanism of intensity quenching and bathochromic shifts was hypothesized to be attributed to changes in protolytic equilibria. The noticeably linear quenching of intensities past pH 1.63 is discussed with respect to lifetime analysis herein below.
There is a predictable, linear increase in intensity from pH 3 to 4.5. Furthermore, emission collected at a fixed 445 nm is shown in FIG. 15 to be an isobestic point where intensities are independent of pH (up to pH 1), which should greatly improve the functionality of CA-Cys as a pH sensor. In other words, utilizing 445 nm as a dual-wavelength reference point allows for background subtraction and normalization with respect to absorbance or concentration. […] Furthermore, I418 nm/I445 nm increases linearly in the region of pH 3 to 4.5 for accurate determination of pH within this region, plotted and fitted with an R^2 value of 0.982. To sum up, I418 nm/I445 nm values near 1.6 indicate pH above 4.5, values below 0.7 indicate highly acidic environments below pH 3, while any intermediate I418 nm/I445 nm values can determine the exact pH with good accuracy. It is important to note that CA-Cys fluorescence is in accordance with Kasha's rule, i.e. fluorescence occurs from the lowest excited state, S1→S0, thus the emission λmax is independent of the excitation wavelength, and a fluorescence excitation scan at a fixed emission of 418 nm or 445 nm would provide the maximum fluorescence intensity for that emission wavelength. Also of importance is the reliable range of the isobestic point, which is broken at high acidities (noticeably below pH 1) due to dynamic quenching effects.

[5] = commercial halide sensors; cited from earlier work
[6] = Time-resolved fluorescence lifetime (TCSPC); format: physicochemical; settings: one-exponential decay, pulsed excitation at 352 nm, maximum emission wavelength
Description: Fluorescence lifetimes were determined by using the Time-Correlation Single Photon Counting (TCSPC) accessory to the FluroMax-4 (Horiba, NJ). NanoLED pulse light sources at wavelengths of 352 nm and 390 nm were used for excitation. For each decay curve, 10,000 photons were collected. Fluorescence lifetime decays were fitted with an exponential series according to equation 1 below:
[formula] where F(t) is the lifetime decay function with respect to time t, Ti is the lifetime value of the emitting species, A is the background offset, and Bi is the pre-exponential function of the emitting species. The method of least squares was used to quantify χ^2 based on the decay data and the fitting function, where χ^2 values smaller than 1.2 indicates a good fit; and values above 1.2 indicate need for multiple exponential fitting in equation 1. If the lifetime decay is dominated by one emitting species, the equation can be simplified to include only the first two terms. One exponential fitting is good for TPA based fluorophores. However, for DPR based fluorophores, only three exponential fitting gives a χ^2 smaller than 1.2. E. Computational Modeling
as §3
Fluorescence lifetime decays were fitted with an exponential series according to equation 5 below:
[formula] Where F(t) is the lifetime decay function with respect to time t, Ti is the lifetime value of the emitting species, A is the background offset, and Bi is the pre-exponential function of the emitting species. If the lifetime decay is dominated by one emitting species, the equation can be simplified to include only the first two terms. Bi measures the relative amplitude of the specified fluorophore, where the percent contribution of the fluorophore to the lifetime decay, f, is derived from equation 6:
[formula] The method of least squares was used to quantify χ^2 based on the decay data and the fitting function, where χ^2 values under 1.2 indicates a good fit, and values above 1.2 indicate need for additional terms in equation 5. Typically, an additional exponential term was necessary to improve the χ^2 value and account for the presence of a negligible 6 ns species, deemed to stem from by-products of CFD synthesis, impurities, or CFD dimers. Since the contribution from this species was minor, often less than 5%, it was not included in lifetime analysis.

Compound	Shifting (emission shifting with excitation wavelength) [1]	Φ (quantum yield) [1]	λem (maximum emission wavelength) [1]	λex (maximum excitation wavelength) [1]	ϵ (extinction coefficiency) [1]	Max. Em. Wavelength [1]	Max. Ex. Wavelength [1]	Quantum Yield [1]	pH dependence of halide quenching [5]	other results
CC[n+]1cccc2cc(OC)ccc21.[I-] [MEQ]	–	–	–	–	–	–	–	–	quenched by halides independent of pH	–
CCOC(=O)C[n+]1cccc2cc(OC)ccc21.[Br-] [MQAE]	–	–	–	–	–	–	–	–	quenched by halides independent of pH	–
CCN(CC)c1ccc2c(-c3ccccc3C(=O)O)c3ccc(=[N+](CC)CC)cc-3oc2c1.[Cl-] [Rhodamine B, reference compound]	–	–	–	–	–	–	–	–	–	fluorescence lifetime τ [6]: 1.75 ns
COc1ccc2c(ccc[n+]2CCCS(=O)(=O)[O-])c1 [SPQ]	–	–	–	–	–	–	–	–	quenched by halides independent of pH	–

Second part, led by results:

Shifting (emission shifting with excitation wavelength) [1]	Φ (quantum yield) [1]	λem (maximum emission wavelength) [1]	λex (maximum excitation wavelength) [1]	ϵ (extinction coefficiency) [1]	Max. Em. Wavelength [1]	Max. Ex. Wavelength [1]	Quantum Yield [1]	Compound	pH dependence of halide quenching [5]	other results
No	79.3%	445 nm	365 nm	3880 M⁻¹ cm⁻¹	445 nm	365 nm	79.3%	O=C(O)c1cc2n(c(=O)c1)CCS2 [CA-Cysteamine]	–	photostability ([2]; FIG. 19): strong photostability; halide sensitivity [3]: increase sensitivity of all halides across all pH
Yes	24.6%	424 nm	359 nm	6.6 M⁻¹ cm⁻¹	422 nm	359 nm	22.1%	CCCN1C(=O)C=C(C(=O)O)CC1=O [CA-Propylamine]	–	pH sensitivity [4]: PH insensitive; photobleaching relative to Fluorescein and Rhodamine B ([2]; 3 hours continuous excitation): less stable
